Activity calls are given as the source filed them. The calls are words filed in the database; no cut-off is given here.
Assays:
[1] = target: Protein farnesyltransferase/geranylgeranyltransferase type-1 subunit alpha (Homo sapiens) (UniProt P49354); assay: Binding affinity to FNTA (unknown origin) assessed as fold change in protein upregulation at 200 uM preincubated for 2 hrs followed by pronase addition and measured after 30 mins by coomassie blue staining based SDS-PAGE gel analysis
[2] = target: Protein O-mannosyl-transferase TMTC3 (Homo sapiens) (UniProt Q6ZXV5); assay: Binding affinity to Tmtc3 (unknown origin) assessed as fold change in protein upregulation at 200 uM preincubated for 2 hrs followed by pronase addition and measured after 30 mins by coomassie blue staining based SDS-PAGE gel analysis
Chain of Protein O-mannosyl-transferase TMTC3 (Homo sapiens) (Q6ZXV5 whole entry): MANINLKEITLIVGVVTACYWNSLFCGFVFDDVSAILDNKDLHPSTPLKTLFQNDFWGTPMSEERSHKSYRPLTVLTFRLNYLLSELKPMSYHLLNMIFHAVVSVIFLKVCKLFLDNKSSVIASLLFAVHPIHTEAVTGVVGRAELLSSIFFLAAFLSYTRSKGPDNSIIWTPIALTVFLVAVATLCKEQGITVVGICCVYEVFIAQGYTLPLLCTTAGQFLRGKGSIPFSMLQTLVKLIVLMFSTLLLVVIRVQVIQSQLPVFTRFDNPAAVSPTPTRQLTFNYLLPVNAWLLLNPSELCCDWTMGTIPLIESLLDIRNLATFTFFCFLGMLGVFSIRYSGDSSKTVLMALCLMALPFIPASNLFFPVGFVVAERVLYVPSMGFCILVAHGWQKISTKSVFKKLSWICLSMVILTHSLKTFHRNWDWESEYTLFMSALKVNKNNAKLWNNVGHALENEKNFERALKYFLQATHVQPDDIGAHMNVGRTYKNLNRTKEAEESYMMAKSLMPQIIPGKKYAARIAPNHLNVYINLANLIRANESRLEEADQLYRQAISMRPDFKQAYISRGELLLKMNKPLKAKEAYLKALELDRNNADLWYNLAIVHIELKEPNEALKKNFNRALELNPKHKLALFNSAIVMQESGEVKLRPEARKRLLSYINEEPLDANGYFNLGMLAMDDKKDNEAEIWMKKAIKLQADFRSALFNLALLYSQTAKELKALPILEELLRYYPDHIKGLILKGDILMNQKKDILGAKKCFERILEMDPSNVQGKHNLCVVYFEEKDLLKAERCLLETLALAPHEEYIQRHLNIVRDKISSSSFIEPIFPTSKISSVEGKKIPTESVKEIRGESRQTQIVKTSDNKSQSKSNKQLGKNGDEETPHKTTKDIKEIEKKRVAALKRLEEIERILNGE

[3] = target: CD2-associated protein (Homo sapiens) (UniProt Q9Y5K6); assay: Binding affinity to Cd2ap (unknown origin) at 200 uM preincubated for 2 hrs followed by pronase addition and measured after 30 mins by coomassie blue staining based SDS-PAGE gel analysis
Chain of CD2-associated protein (Homo sapiens) (Q9Y5K6 whole entry): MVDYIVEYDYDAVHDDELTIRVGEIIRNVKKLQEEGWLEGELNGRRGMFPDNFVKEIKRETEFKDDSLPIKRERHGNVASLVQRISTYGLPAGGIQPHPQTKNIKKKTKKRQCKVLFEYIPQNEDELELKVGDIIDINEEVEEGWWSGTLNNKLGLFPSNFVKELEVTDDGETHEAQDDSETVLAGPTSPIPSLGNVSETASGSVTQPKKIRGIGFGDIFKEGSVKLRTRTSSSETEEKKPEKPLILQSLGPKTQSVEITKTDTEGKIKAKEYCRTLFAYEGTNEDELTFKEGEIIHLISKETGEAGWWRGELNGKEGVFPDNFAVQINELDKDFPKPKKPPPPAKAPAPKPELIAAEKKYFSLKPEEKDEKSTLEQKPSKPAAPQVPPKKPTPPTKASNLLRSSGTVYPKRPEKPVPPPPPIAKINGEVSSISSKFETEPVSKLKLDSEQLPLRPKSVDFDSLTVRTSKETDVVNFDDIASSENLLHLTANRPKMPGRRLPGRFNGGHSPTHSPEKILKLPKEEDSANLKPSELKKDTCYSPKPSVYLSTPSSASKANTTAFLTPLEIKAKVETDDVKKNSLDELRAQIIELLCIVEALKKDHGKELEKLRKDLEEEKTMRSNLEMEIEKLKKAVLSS

Testin (Homo sapiens) = Testin (Homo sapiens) (UniProt Q9UGI8); assay: Binding affinity to Tes (unknown origin) assessed as fold change in protein upregulation at 200 uM preincubated for 2 hrs followed by pronase addition and measured after 30 mins by coomassie blue staining based SDS-PAGE gel analysis
Chain of Testin (Homo sapiens) (Q9UGI8 whole entry): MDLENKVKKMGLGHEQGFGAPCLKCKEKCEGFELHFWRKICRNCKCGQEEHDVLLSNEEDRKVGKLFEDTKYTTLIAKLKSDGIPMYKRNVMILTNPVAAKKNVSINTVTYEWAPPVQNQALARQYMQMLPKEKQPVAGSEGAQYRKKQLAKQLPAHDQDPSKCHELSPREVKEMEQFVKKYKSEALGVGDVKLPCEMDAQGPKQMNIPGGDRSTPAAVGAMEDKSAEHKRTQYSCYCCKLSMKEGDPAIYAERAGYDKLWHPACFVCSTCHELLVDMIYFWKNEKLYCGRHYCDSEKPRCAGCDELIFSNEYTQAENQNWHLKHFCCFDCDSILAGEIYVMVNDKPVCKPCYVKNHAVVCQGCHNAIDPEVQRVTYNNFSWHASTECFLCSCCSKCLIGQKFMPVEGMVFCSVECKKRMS

## COc1c(O)nc2c(O)cccc2c1OC
[1]
  fold change (FC): 1.26
[2]
  fold change (FC): 1.22
[3]
  Activity: Active
Testin (Homo sapiens)
  fold change (FC): 1.32

Reference: ChEMBL document CHEMBL5335856, “Structurally Diverse Alkaloids with Anti-Renal-Fibrosis Activity from the Centipede Scolopendra subspinipes mutilans” (J Nat Prod, 2024)
